Each block holds one compound with its values, some of them ahead of it.
Tests used:
[1] = target: Fyn (Homo sapiens, UniProt P06241); experiment: Kinase assay, Fyn; type: biochemical
Procedure: (§1) Kinase activity and compound inhibition are investigated using one or more assay formats. The ATP concentrations for each assay are selected to be close to the Michaelis-Menten constant (KM) for each individual kinase. Dose-response experiments are performed at 10 different inhibitor concentrations in a 384-well plate format. […] Exemplary kinase assays are described below. KDR Assay

[2] = target: PDGFR alpha (Homo sapiens, UniProt P16234); experiment: Kinase assay, PDGFR alpha (33P-ATP incorporation or luciferase-coupled ATP consumption); type: biochemical; details: read-out: PDGF-R-A IC50
Sequence of PDGFR alpha (P16234 24-1089): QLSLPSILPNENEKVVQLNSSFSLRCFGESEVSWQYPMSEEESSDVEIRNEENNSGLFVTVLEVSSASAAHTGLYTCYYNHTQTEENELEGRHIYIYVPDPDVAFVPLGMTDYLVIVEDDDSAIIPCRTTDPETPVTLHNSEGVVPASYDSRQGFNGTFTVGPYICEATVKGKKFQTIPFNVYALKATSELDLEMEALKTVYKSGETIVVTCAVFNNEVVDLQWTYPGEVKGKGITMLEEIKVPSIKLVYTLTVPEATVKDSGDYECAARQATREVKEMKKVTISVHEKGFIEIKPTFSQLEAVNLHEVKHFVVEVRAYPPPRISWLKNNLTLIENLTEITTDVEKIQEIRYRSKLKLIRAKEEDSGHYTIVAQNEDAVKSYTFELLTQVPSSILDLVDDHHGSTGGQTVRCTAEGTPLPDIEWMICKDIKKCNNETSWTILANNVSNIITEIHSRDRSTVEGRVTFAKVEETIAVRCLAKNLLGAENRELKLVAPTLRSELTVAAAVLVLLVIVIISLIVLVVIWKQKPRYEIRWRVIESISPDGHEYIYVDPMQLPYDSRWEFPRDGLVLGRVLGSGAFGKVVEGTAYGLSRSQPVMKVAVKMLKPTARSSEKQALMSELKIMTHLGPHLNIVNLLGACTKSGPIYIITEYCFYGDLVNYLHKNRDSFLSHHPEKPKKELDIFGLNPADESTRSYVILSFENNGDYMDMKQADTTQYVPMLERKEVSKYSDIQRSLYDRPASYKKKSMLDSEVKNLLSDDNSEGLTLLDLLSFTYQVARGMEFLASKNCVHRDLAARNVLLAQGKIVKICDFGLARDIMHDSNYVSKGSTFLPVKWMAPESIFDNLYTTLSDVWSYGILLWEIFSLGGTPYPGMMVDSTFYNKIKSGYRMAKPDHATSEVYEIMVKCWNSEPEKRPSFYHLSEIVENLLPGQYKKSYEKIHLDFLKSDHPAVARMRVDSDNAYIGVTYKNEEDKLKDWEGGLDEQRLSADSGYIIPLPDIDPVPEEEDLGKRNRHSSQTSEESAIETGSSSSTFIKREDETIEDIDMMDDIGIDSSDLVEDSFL
Procedure: (§2) Kinase assays were performed by measurement of incorporation of γ-^33P ATP into immobilized myelin basic protein (MBP). […] Plates were washed 3× with 100 μl TBS. […] Compound dilutions were performed in DMSO and added to assay wells to a final DMSO concentration of 1%. Each data point was measured in duplicate, and at least two duplicate assays were performed for each individual compound determination. Enzyme was added to final concentrations of 10 nM or 20 nM, for example. A mixture of unlabeled ATP and γ-^33P ATP was added to start the reaction (2×10^6 cpm of γ-^33P ATP per well (3000 Ci/mmole) and either 10 μM or 30 μM unlabeled ATP, typically. The reactions were carried out for 1 hour at room temperature with shaking. Plates were washed 7× with TBS, followed by the addition of 50 μl/well scintillation fluid (Wallac). Plates were read using a Wallac Trilux counter. This is only one format of such assays, various other formats are possible, as known to one of ordinary skill in the art.
(§3) Tyrosine kinase activity is determined by 1) measurement of kinase-dependent ATP consumption by in the presence of a generic substrate such as, polyglutamic acid, tyrosine, 4:1 (pEY), by luciferase/luciferin-mediated chemiluminescence or; 2) incorporation of radioactive phosphate derived from ^33P-ATP into a generic substrate which has been adsorbed onto the well surface of polystyrene microtiter plates. Phosphorylated substrate products are quantified by scintillation spectrometry.
as §1

[3] = target: IRK (Homo sapiens, UniProt P06213); experiment: Kinase assay, IRK; type: biochemical
Sequence of IRK (P06213 28-1382): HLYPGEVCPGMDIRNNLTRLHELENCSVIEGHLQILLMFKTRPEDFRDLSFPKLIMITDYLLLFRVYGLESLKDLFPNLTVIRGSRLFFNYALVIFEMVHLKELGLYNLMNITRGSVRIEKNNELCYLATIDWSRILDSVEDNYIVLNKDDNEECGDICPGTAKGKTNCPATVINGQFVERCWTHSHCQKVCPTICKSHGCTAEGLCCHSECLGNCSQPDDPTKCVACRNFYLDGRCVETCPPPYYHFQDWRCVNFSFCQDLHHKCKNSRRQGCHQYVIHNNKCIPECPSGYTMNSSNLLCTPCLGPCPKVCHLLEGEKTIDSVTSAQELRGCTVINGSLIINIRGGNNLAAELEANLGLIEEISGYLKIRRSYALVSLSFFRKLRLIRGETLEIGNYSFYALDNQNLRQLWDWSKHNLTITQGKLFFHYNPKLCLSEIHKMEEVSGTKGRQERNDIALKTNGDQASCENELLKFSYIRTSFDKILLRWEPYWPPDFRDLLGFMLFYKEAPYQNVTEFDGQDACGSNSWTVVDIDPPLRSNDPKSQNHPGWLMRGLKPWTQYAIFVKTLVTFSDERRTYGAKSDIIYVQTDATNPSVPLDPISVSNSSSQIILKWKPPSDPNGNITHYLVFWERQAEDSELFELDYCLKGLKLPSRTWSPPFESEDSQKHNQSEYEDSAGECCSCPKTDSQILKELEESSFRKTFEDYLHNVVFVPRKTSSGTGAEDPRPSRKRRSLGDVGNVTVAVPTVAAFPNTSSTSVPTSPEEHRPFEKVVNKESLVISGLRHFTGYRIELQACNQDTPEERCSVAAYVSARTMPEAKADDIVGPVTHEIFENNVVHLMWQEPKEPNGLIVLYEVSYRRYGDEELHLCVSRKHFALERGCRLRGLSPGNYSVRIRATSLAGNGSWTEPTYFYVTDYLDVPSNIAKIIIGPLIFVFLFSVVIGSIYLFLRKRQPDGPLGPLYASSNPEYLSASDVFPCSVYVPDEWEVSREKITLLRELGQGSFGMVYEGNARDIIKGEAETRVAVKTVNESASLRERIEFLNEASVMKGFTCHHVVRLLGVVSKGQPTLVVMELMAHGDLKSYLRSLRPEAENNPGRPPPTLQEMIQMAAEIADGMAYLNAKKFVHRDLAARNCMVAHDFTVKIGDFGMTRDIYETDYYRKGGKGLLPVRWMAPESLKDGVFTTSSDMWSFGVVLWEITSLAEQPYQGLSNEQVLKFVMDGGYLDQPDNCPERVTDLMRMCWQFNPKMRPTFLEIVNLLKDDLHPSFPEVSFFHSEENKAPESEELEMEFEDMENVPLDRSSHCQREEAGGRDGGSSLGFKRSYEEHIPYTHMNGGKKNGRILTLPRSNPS
Procedure: as §1

[4] = target: EGFR (Homo sapiens, UniProt P00533); experiment: Kinase assay, EGFR (33P-ATP incorporation or luciferase-coupled ATP consumption); type: biochemical
Procedure: as §2, §3, §1

[5] = target: Flt-1 (Homo sapiens, UniProt P17948); experiment: Kinase assay, Flt-1 (33P-ATP incorporation or luciferase-coupled ATP consumption); type: biochemical; details: read-out: Flt1 IC50
Sequence of Flt-1 (P17948 27-1338, species assumed): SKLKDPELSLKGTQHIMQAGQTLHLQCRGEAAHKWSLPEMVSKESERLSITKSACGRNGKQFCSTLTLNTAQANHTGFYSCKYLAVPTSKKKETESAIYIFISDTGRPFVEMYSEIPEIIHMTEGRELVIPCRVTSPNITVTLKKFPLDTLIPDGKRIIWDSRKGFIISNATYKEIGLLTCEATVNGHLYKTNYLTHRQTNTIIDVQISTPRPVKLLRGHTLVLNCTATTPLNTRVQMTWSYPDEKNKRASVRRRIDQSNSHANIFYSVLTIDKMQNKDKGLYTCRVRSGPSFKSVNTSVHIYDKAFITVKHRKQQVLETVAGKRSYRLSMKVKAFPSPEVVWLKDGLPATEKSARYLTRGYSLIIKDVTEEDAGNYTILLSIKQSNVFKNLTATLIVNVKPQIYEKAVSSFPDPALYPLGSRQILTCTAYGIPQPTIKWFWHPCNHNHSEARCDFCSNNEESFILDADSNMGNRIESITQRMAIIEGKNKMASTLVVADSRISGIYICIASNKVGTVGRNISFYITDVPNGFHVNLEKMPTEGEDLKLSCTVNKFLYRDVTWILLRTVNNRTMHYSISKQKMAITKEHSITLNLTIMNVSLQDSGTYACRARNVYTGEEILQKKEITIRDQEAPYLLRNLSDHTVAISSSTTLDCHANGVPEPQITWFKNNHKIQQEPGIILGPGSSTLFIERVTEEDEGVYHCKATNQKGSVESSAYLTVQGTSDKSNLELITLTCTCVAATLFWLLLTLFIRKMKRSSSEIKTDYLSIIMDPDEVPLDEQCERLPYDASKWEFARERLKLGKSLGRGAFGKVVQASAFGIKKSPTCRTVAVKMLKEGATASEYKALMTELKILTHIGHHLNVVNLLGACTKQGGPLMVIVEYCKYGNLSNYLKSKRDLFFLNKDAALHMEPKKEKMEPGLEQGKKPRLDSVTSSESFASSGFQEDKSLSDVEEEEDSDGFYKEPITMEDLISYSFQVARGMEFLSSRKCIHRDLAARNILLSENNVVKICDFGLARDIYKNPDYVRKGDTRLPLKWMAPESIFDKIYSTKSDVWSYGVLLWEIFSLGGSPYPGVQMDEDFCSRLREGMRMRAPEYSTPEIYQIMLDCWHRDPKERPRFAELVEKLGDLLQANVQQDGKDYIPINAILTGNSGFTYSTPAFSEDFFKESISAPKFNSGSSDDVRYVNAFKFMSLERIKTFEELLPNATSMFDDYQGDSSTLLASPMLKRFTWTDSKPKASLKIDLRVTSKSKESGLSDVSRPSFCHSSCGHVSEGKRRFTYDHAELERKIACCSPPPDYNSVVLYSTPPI
Procedure: as §2, §3, §1

[6] = target: EphA2 (Homo sapiens, UniProt P29317); experiment: Kinase assay, EphA2 (33P-ATP incorporation or luciferase-coupled ATP consumption); type: biochemical
Procedure: as §2, §3, §1

[7] = target: T1, KDR (baculovirus expressed human KDR kinase domain D807-V1356) (Homo sapiens, UniProt P35968); experiment: biochemical
T1 construct: human KDR kinase domain D807-V1356; host or cells: baculovirus expression system
T1 sequence (P35968 807-1356): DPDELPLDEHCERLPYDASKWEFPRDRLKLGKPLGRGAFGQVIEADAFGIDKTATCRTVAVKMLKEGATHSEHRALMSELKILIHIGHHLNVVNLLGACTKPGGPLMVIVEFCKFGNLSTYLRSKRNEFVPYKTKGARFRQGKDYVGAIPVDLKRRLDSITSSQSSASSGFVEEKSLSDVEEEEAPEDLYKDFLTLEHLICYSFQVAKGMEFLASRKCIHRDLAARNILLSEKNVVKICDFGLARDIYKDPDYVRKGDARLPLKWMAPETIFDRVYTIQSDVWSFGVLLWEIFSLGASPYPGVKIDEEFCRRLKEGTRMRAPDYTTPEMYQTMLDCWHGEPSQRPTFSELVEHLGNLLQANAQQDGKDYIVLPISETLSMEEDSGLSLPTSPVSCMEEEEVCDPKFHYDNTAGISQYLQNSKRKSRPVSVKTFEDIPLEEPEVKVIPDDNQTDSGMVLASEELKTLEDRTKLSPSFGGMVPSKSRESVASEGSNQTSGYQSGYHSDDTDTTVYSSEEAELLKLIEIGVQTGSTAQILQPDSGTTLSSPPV
Procedure: as §1
KDR biochemical activity was assessed using a Luciferase-Coupled Chemiluminescent Kinase assay (LCCA) format. Kinase activity was measured as the percent ATP remaining following the kinase reaction. Remaining ATP was detected by luciferase-luciferin-coupled chemiluminescence. […] The mixture is incubated at ambient temperature for 4 hours after which 20 uL luciferase-luciferin mix is added and the chemiluminescent signal read using a Wallac Victor^2 reader.

Sequence of Fyn (P06241 whole entry, species assumed): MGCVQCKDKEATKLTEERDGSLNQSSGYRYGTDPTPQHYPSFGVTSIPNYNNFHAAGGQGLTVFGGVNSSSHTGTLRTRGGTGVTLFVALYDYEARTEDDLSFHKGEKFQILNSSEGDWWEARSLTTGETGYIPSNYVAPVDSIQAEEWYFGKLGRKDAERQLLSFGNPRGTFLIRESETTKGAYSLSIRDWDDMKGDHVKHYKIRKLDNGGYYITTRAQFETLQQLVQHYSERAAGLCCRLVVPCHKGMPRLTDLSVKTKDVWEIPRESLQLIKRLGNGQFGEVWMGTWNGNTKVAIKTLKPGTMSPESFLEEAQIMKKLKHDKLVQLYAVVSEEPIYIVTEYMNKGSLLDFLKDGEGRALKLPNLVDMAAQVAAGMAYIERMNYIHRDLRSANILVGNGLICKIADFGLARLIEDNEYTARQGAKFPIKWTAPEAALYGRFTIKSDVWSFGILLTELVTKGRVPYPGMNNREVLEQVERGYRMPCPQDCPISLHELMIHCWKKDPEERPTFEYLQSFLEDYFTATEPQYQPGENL

Compound: CCN1CCC(Nc2ccc3c(c2)/C(=C(\c2cccc(C(=N)N)c2)c2nc4ccccc4[nH]2)C(=O)N3)CC1 [Entry 23, 3-((Z)-1H-benzimidazol-2-yl{5-[(1-ethylpiperidin-4-yl)amino]-2-oxo-1,2-dihydro-3H-indol-3-ylidene}methyl) benzenecarboximidamide]
- IC50 [1]: 500 to 5000 nM
- IC50 [2]: 500 to 5000 nM
- IC50 [3]: 500 to 5000 nM
- IC50 [4]: 500 to 5000 nM
- IC50 [5]: 500 to 5000 nM
- IC50 [6]: 500 to 5000 nM
- IC50 [7]: 500 to 5000 nM

Compound: O=C1Nc2ccc(NC3CC4CCC(C3)N4)cc2/C1=C(\c1ccccc1)c1nc2ccccc2[nH]1 (centres unmarked) [Entry 31, (3Z)-5-(8-azabicyclo[3.2.1]oct-3-ylamino)-3-[1H-benzimidazol-2-yl(phenyl)methylidene]-1,3-dihydro-2H-indol-2-one]
- IC50 [1]: 50 to 500 nM
- IC50 [2]: 50 to 500 nM
- IC50 [3]: 500 to 5000 nM
- IC50 [4]: 500 to 5000 nM
- IC50 [5]: 500 to 5000 nM
- IC50 [6]: 500 to 5000 nM
- IC50 [7]: 50 to 500 nM

Compound: CC1(C)CC(Nc2ccc3c(c2)/C(=C(\c2ccccc2)c2nc4ccccc4[nH]2)C(=O)N3)CC(C)(C)N1 [Entry 25, (3Z)-3-[1H-benzimidazol-2-yl(phenyl)methylidene]-5-[(2,2,6,6-tetramethylpiperidin-4-yl)amino]-1,3-dihydro-2H-indol-2-one]
- IC50 [1]: 500 to 5000 nM
- IC50 [2]: 50 to 500 nM
- IC50 [3]: 500 to 5000 nM
- IC50 [4]: 500 to 5000 nM
- IC50 [5]: 500 to 5000 nM
- IC50 [6]: 500 to 5000 nM
- IC50 [7]: 50 to 500 nM

Compound: COc1ccc2[nH]c(/C(=C3\C(=O)Nc4ccc(NC5CC(C)(C)NC(C)(C)C5)cc43)c3ccccc3)nc2c1 [Entry 10, (3Z)-3-[[5-(methyloxy)-1H-benzimidazol-2-yl](phenyl)methylidene]-5-[(2,2,6,6-tetramethylpiperidin-4-yl)amino]-1,3-dihydro-2H-indol-2-one]
- IC50 [1]: 500 to 5000 nM
- IC50 [2]: 50 to 500 nM
- IC50 [3]: 500 to 5000 nM
- IC50 [4]: 500 to 5000 nM
- IC50 [5]: 500 to 5000 nM
- IC50 [6]: 500 to 5000 nM
- IC50 [7]: 500 to 5000 nM

Compound: CCN1CCC(Nc2ccc3c(c2)/C(=C(\c2ccccc2)c2nc(CCN4C(=O)c5ccccc5C4=O)c[nH]2)C(=O)N3)CC1 [Entry 28, 2-(2-{2-[(Z)-{5-[(1-ethylpiperidin-4-yl)amino]-2-oxo-1,2-dihydro-3H-indol-3-ylidene}(phenyl)methyl]-1H-imidazol-4-yl}ethyl)-1H-isoindole-1,3(2H)-dione]
- IC50 [1]: 50 to 500 nM
- IC50 [2]: < 50 nM
- IC50 [3]: 500 to 5000 nM
- IC50 [4]: 500 to 5000 nM
- IC50 [5]: 50 to 500 nM
- IC50 [6]: 500 to 5000 nM
- IC50 [7]: < 50 nM

Compound: COc1ccc2[nH]c(/C(=C3\C(=O)Nc4ccc(NC5CCN(Cc6ccccc6)C5)cc43)c3ccccc3)nc2c1 (centres unmarked) [Entry 1, (3Z)-3-[[5-(methyloxy)-1H-benzimidazol-2-yl](phenyl)methylidene[-5-}[1-(phenylmethyl)pyrrolidin-3-yl]amino}-1,3-dihydro-2H-indol-2-one]
- IC50 [1]: 50 to 500 nM
- IC50 [2]: 50 to 500 nM
- IC50 [3]: > 5000 nM
- IC50 [4]: 500 to 5000 nM
- IC50 [5]: 50 to 500 nM
- IC50 [6]: 500 to 5000 nM
- IC50 [7]: < 50 nM

Compound: CCN1CCC(Nc2ccc3c(c2)/C(=C(\c2cccc(C#N)c2)c2nc4ccccc4[nH]2)C(=O)N3)CC1 [Entry 20, 3-((Z)-1H-benzimidazol-2-yl{5-[(1-ethylpiperidin-4-yl)amino]-2-oxo-1,2-dihydro-3H-indol-3-ylidene)methyl) benzonitrile]
- IC50 [1]: 50 to 500 nM
- IC50 [2]: 50 to 500 nM
- IC50 [3]: 500 to 5000 nM
- IC50 [4]: 500 to 5000 nM
- IC50 [5]: 500 to 5000 nM
- IC50 [6]: 500 to 5000 nM
- IC50 [7]: < 50 nM

Compound: CS(=O)(=O)N1CCC(Nc2ccc3c(c2)/C(=C(\c2ccccc2)c2nc4ccccc4[nH]2)C(=O)N3)CC1 [Entry 30, (3Z)-3-[1H-benzimidazol-2-yl(phenyl)methylidene]-5-{[1-(methylsulfonyl)piperidin-4-yl]amino}-1,3-dihydro-2H-indol-2-one]
- IC50 [1]: 500 to 5000 nM
- IC50 [2]: 500 to 5000 nM
- IC50 [3]: 500 to 5000 nM
- IC50 [4]: 500 to 5000 nM
- IC50 [5]: 500 to 5000 nM
- IC50 [6]: 500 to 5000 nM
- IC50 [7]: 50 to 500 nM

Next, values leading:

- IC50 [1]: < 50 nM
- IC50 [2]: < 50 nM
- IC50 [3]: 500 to 5000 nM
- IC50 [4]: 500 to 5000 nM
- IC50 [5]: 500 to 5000 nM
- IC50 [6]: 500 to 5000 nM
- IC50 [7]: < 50 nM
Compound: O=C1Nc2ccc(OC3CCN(Cc4ccccc4)CC3)cc2/C1=C(\c1ccccc1)c1nc2ccccc2[nH]1 [Entry 34, (3Z)-3-[1H-benzimidazol-2-yl(phenyl)methylidene]-5-{(1-(phenylmethyl)piperidin-4-yl]oxy}-1,3-dihydro-2H-indol-2-one]

- IC50 [1]: 50 to 500 nM
- IC50 [2]: 50 to 500 nM
- IC50 [3]: 500 to 5000 nM
- IC50 [4]: 500 to 5000 nM
- IC50 [5]: 500 to 5000 nM
- IC50 [6]: 500 to 5000 nM
- IC50 [7]: < 50 nM
Compound: CN(C)CCN1CCC(Nc2ccc3c(c2)/C(=C(\c2ccccc2)c2nc4ccccc4[nH]2)C(=O)N3)CC1 [Entry 29, (3Z)-3-[1H-benzimidazol-2-yl(phenyl)methylidene]-5-({1-[2-(dimethylamino)ethyl]piperidin-4-yl}amino)-1,3-dihydro-2H-indol-2-one]

- IC50 [1]: < 50 nM
- IC50 [2]: < 50 nM
- IC50 [3]: 500 to 5000 nM
- IC50 [4]: 500 to 5000 nM
- IC50 [5]: 50 to 500 nM
- IC50 [6]: 500 to 5000 nM
- IC50 [7]: < 50 nM
Compound: CCN1CCC(Oc2ccc3c(c2)/C(=C(\c2cccc(OC)c2)c2nc4ccccc4[nH]2)C(=O)N3)CC1 [Entry 32, (3Z)-3-{1H-benzimidazol-2-yl[3-(methyloxy)phenyl]methylidene}-5-[(1-ethylpiperidin-4-yl)oxy]-1,3-dihydro-2H-indol-2-one]

- IC50 [1]: 50 to 500 nM
- IC50 [2]: < 50 nM
- IC50 [3]: > 5000 nM
- IC50 [4]: 500 to 5000 nM
- IC50 [5]: 50 to 500 nM
- IC50 [6]: > 5000 nM
- IC50 [7]: < 50 nM
Compound: CCN1CCC(Nc2ccc3c(c2)/C(=C(\c2ccc([N+](=O)[O-])cc2)c2nc4ccccc4[nH]2)C(=O)N3)CC1 [Entry 7, (3Z)-3-(1H-benzimidazol-2-yl(4-nitrophenyl)methylidene]-5-[(1-ethylpiperidin-4-yl)amino]-1,3-dihydro-2H-indol-2-one]

- IC50 [1]: < 50 nM
- IC50 [2]: < 50 nM
- IC50 [3]: 50 to 500 nM
- IC50 [4]: 500 to 5000 nM
- IC50 [5]: 50 to 500 nM
- IC50 [6]: 50 to 500 nM
- IC50 [7]: < 50 nM
Compound: O=C1Nc2ccc(NC3CCNCC3)cc2/C1=C(\c1ccccc1)c1nc2ccccc2[nH]1 [Entry 22, (3Z)-3-[1H-benzimidazol-2-yl(phenyl)methylidene] -5-(piperidin-4-ylamino)-1,3-dihydro-2H-indol-2-one]

- IC50 [1]: < 50 nM
- IC50 [2]: < 50 nM
- IC50 [3]: 500 to 5000 nM
- IC50 [4]: 500 to 5000 nM
- IC50 [5]: 50 to 500 nM
- IC50 [6]: > 5000 nM
- IC50 [7]: < 50 nM
Compound: CCN1CCC(Nc2ccc3c(c2)/C(=C(\c2ccc(OC)cc2)c2nc4cc(OC)ccc4[nH]2)C(=O)N3)CC1 [Entry 5, (3Z)-5-[(1-ethylpiperidin-4-yl)amino]-3-{[5-(methyloxy)-1H-benzimidazol-2-yl][4-(methyloxy)phenyl]methylidene}-1,3-dihydro-2H-indol-2-one]

- IC50 [1]: 50 to 500 nM
- IC50 [2]: < 50 nM
- IC50 [3]: 500 to 5000 nM
- IC50 [4]: 500 to 5000 nM
- IC50 [5]: 50 to 500 nM
- IC50 [6]: 500 to 5000 nM
- IC50 [7]: < 50 nM
Compound: CCN1CCC(Nc2ccc3c(c2)/C(=C(\c2cccc(N)c2)c2nc4ccccc4[nH]2)C(=O)N3)CC1 [Entry 21, (3Z)-3-[(3-aminophenyl) (1H-benzimidazol-2-yl)methylidene]-5-[(1-ethylpiperidin-4-yl)amino]-1,3-dihydro-2H-indol-2-one]

- IC50 [1]: 50 to 500 nM
- IC50 [2]: < 50 nM
- IC50 [3]: 500 to 5000 nM
- IC50 [4]: 500 to 5000 nM
- IC50 [5]: 50 to 500 nM
- IC50 [6]: 500 to 5000 nM
- IC50 [7]: < 50 nM
Compound: CCN1CCC(Nc2ccc3c(c2)/C(=C(\c2cccc([N+](=O)[O-])c2)c2nc4ccccc4[nH]2)C(=O)N3)CC1 [Entry 19, (3Z)-3-[1H-benzimidazol-2-yl(3-nitrophenyl)methylidene]-5-[(1-ethylpiperidin-4-yl)amino]-1,3-dihydro-2H-indol-2-one]

- IC50 [1]: < 50 nM
- IC50 [2]: < 50 nM
- IC50 [3]: 500 to 5000 nM
- IC50 [4]: 500 to 5000 nM
- IC50 [5]: 50 to 500 nM
- IC50 [6]: 500 to 5000 nM
- IC50 [7]: < 50 nM
Compound: CCN1CCC(Nc2ccc3c(c2)/C(=C(\c2ccc(OC)cc2)c2ncc[nH]2)C(=O)N3)CC1 [Entry 15, (3Z)-5-[(1-ethylpiperidin-4-yl)amino]-3-{1H-imidazol-2-yl[4-(methyloxy)phenyl]methylidene}-1,3-dihydro-2H-indol-2-one]

Source: US7626031B2, “Substituted 3-(diarylmethylene)indolin-2-ones and methods of their use” (Symphony Evolution, Inc., priority 2002, dated 2009)
